The results in this text go back to patent publication US9139502B2, “Use of an urushiol compound in preparation of pharmaceutical compositions for inhibiting Smad3 phosphorylation” (Southern Hospital, Southern Medical University, priority 2013, dated 2015).

The structures appear in SMILES notation.

This assay concerns Smad3. The experiment in a line: Immunofluorescence staining of TGF-β1-induced Smad3 nuclear translocation. It is filed as cell-based, rat. Particulars: NRK52E cells, GQ-5 2.5 μM pre-treated 1 h, TGF-β1 10 ng/ml 2 h. The protocol:
NRK52E cells were cultured in DMEM-Ham's medium supplemented with 10% fetal bovine serum. The cells reached at approximately 50% confluence were used for in vitro experiments. Cells were serum-starved for 12 h, and randomized into 3 groups: (1) Controls; (2) TGF-β1 only; (3) TGF-β1+GQ-5.
(2) TGF-β1 only: pre-treated with DMSO for 1 h, followed with TGF-β1 (10 ng/ml) for 2 h
(3) TGF-β1+GQ-5: pre-treated with GQ-5 (2.5 μM) for 1 h, followed with TGF-β1 (10 ng/ml) for 2 h
GQ-5 was dissolved in DMSO. Cells were treated as described Immunofluorescence staining was performed to examine the nuclear translocation of Smad2, Smad3, and Smad4.

Consider `CCCCCC/C=C\CCCCCCCc1cccc(O)c1O` [GQ-5, 3-[(Z)-pentadec-8-enyl]catechol], for which the “TGF-β1-induced Smad3 nuclear translocation” value is “significantly reduced”.
